What was measured:
Test in all cases: MIC, broth microdilution (CLSI), substance alone or ATB combined with compound at 4 or 8 μg/mL
KPN BAA-1898 = assay type: cell-based, K. pneumoniae; conditions: KPN BAA-1898; for MIC ATB combined with Example: Example @8 μg/ml
In short: (§1)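 Each strain received 5·10^5 CFU/mL of log-phase cells in ca-MHB over DMSO-spotted compound or compound-antibiotic combinations. After 16-20 h at 35° C, growth was scored visually.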

KPN UFR42 = assay type: cell-based, K. pneumoniae; conditions: KPN UFR42; for MIC ATB combined with Example: Example @8 μg/ml; for MIC ATB combined with Example compound: compound @8 μg/ml
In short: as §1

KPN 6299 = assay type: cell-based, K. pneumoniae; conditions: for MIC ATB combined with Example: Example @8 μg/ml
In short: as §1

ECO UFR39 = assay type: cell-based, E. coli; conditions: ECO UFR39; for MIC ATB combined with Example: Example @8 μg/ml; for MIC ATB combined with Example compound: compound @8 μg/ml
In short: as §1

ECO 190317 = assay type: cell-based, E. coli; conditions: ECO 190317; for MIC ATB combined with Example: Example @8 μg/ml
In short: as §1

SPN 49619 = assay type: cell-based, S. pneumoniae; conditions: SPN 49619; for MIC ATB combined with Example: Example @8 μg/ml; for MIC ATB combined with Example compound: compound @8 μg/ml
In short: as §1

SAU 29213 = assay type: cell-based, S. aureus; conditions: for MIC ATB combined with Example / MIC ATB combined with Example compound: SAU 29213; for MIC ATB combined with Example: Example @8 μg/ml; for MIC ATB combined with Example compound: compound @8 μg/ml
In short: as §1

PAE 105250 = assay type: cell-based, P. aeruginosa; conditions: PAE 105250; for MIC ATB combined with Example: Example @8 μg/ml; for MIC ATB combined with Example compound: compound @8 μg/ml
In short: as §1

PAE UFR90 = assay type: cell-based, P. aeruginosa; conditions: PAE UFR90; for MIC ATB combined with Example: Example @8 μg/ml; for MIC ATB combined with Example compound: compound @8 μg/ml
In short: as §1

PAE UFR48 = assay type: cell-based, P. aeruginosa; conditions: PAE UFR48; for MIC ATB combined with Example: Example @8 μg/ml; for MIC ATB combined with Example compound: compound @8 μg/ml
In short: as §1

ECL P99 = assay type: cell-based, E. cloacae; conditions: ECL P99; for MIC ATB combined with Example: Example @8 μg/ml
In short: as §1

[1] = Escherichia coli, substance alone, read-out: MIC

With `O=C1N2CC(n3cncn3)=CC(C2)N1OS(=O)(=O)[O-].[Na+]` (stereo not shown) [Example 14, sodium [7-oxo-3-(1,2,4-triazol-1-yl)-1,6-diazabicyclo[3.2.1]oct-3-en-6-yl] sulfate] the “MIC ATB combined with Example” value (KPN BAA-1898; ATB ATM) was <0.031 µg/mL, the “MIC ATB combined with Example” value (KPN BAA-1898; ATB FEP) was <0.031 µg/mL and the “MIC ATB combined with Example” value (KPN BAA-1898; ATB FOS) was <0.125 µg/mL. The “MIC ATB combined with Example” value (KPN BAA-1898; ATB MEM) was <0.031 µg/mL, the “MIC ATB combined with Example” value (KPN BAA-1898; ATB PIP) was <0.031 µg/mL and the MIC (KPN BAA-1898; Klebsiella pneumoniae, BAA1898, substance alone, read-out: MIC) was 4 µg/mL. The “MIC ATB combined with Example compound” value (KPN BAA-1898; MIC of CIP, compound @8 μg/ml) was <0.031 µg/mL, the “MIC ATB combined with Example” value (KPN UFR42; ATB ATM) was <0.031 µg/mL and the “MIC ATB combined with Example” value (KPN UFR42; ATB FEP) was <0.031 µg/mL. The “MIC ATB combined with Example” value (KPN UFR42; ATB FOS) was <0.125 µg/mL, the “MIC ATB combined with Example” value (KPN UFR42; ATB MEM) was <0.031 µg/mL and the “MIC ATB combined with Example” value (KPN UFR42; ATB PIP) was <0.031 µg/mL. For the same compound, the MIC (KPN UFR42; Klebsiella pneumoniae, substance alone, read-out: MIC) was 8 µg/mL, the “MIC ATB combined with Example compound” value (KPN UFR42; MIC of CIP) was <0.031 µg/mL and the “MIC ATB combined with Example compound” value (KPN UFR42; MIC of CPO) was <0.031 µg/mL. The “MIC ATB combined with Example” value (KPN 6299; ATB ATM) was <0.031 µg/mL, the “MIC ATB combined with Example” value (KPN 6299; ATB FEP) was <0.031 µg/mL and the “MIC ATB combined with Example” value (KPN 6299; ATB FOS) was <0.125 µg/mL. For the same compound, the “MIC ATB combined with Example” value (KPN 6299; ATB MEM) was <0.031 µg/mL, the “MIC ATB combined with Example” value (KPN 6299; ATB PIP) was <0.031 µg/mL and the “MIC ATB combined with Example compound” value (KPN 6299; MIC of CIP, compound @8 μg/ml) was <0.031 µg/mL. For the same compound, the “MIC ATB combined with Example” value (ECO UFR39; ATB ATM) was <0.031 µg/mL, the “MIC ATB combined with Example” value (ECO UFR39; ATB FEP) was <0.031 µg/mL and the “MIC ATB combined with Example” value (ECO UFR39; ATB FOS) was <0.125 µg/mL. The “MIC ATB combined with Example” value (ECO UFR39; ATB MEM) was <0.031 µg/mL, the “MIC ATB combined with Example” value (ECO UFR39; ATB PIP) was <0.031 µg/mL and the MIC (ECO UFR39; [1]) was 2 µg/mL. The “MIC ATB combined with Example compound” value (ECO UFR39; MIC of CIP) was <0.031 µg/mL, the “MIC ATB combined with Example compound” value (ECO UFR39; MIC of CPO) was <0.031 µg/mL and the “MIC ATB combined with Example” value (ECO 190317; ATB ATM) was <0.031 µg/mL. The “MIC ATB combined with Example” value (ECO 190317; ATB FEP) was <0.031 µg/mL, the “MIC ATB combined with Example” value (ECO 190317; ATB FOS) was <0.125 µg/mL and the “MIC ATB combined with Example” value (ECO 190317; ATB MEM) was <0.031 µg/mL. For the same compound, the “MIC ATB combined with Example” value (ECO 190317; ATB PIP) was <0.031 µg/mL, the MIC (ECO 190317; [1]) was 1 µg/mL and the “MIC ATB combined with Example compound” value (ECO 190317; MIC of CIP, compound @8 μg/ml) was <0.031 µg/mL. For the same compound, the “MIC ATB combined with Example” value (SPN 49619; ATB ATM) was <0.031 µg/mL, the “MIC ATB combined with Example” value (SPN 49619; ATB FEP) was “<=0.031 μg/mL” and the “MIC ATB combined with Example” value (SPN 49619; ATB FOS) was 0.5 µg/mL. For the same compound, the “MIC ATB combined with Example” value (SPN 49619; ATB MEM) was <0.031 µg/mL, the “MIC ATB combined with Example” value (SPN 49619; ATB PIP) was 0.063 µg/mL and the “MIC ATB combined with Example compound” value (SPN 49619; MIC of CIP) was 0.031 µg/mL. The “MIC ATB combined with Example compound” value (SPN 49619; MIC of CLI) was <0.0010 µg/mL, the “MIC ATB combined with Example compound” value (SPN 49619; MIC of CPO) was <0.031 µg/mL and the “MIC ATB combined with Example compound” value (SPN 49619; MIC of DAP) was “<=0.0020 μg/mL”. For the same compound, the “MIC ATB combined with Example compound” value (SPN 49619; MIC of ERY) was <0.0020 µg/mL, the “MIC ATB combined with Example compound” value (SPN 49619; MIC of LZD) was <0.0078 µg/mL and the “MIC ATB combined with Example compound” value (SPN 49619; MIC of RIF) was “<=0.00012 μg/mL”. The “MIC ATB combined with Example compound” value (SPN 49619; MIC of SYN) was “<=0.0020 μg/mL”, the “MIC ATB combined with Example compound” value (SPN 49619; MIC of VAN) was <0.0039 µg/mL and the MIC (SPN 49619; Streptococcus pneumoniae, substance alone, read-out: MIC) was 8 µg/mL. For the same compound, the “MIC ATB combined with Example” value (SAU 29213; ATB ATM) was <0.031 µg/mL, the “MIC ATB combined with Example” value (SAU 29213; ATB FEP) was <0.031 µg/mL and the “MIC ATB combined with Example” value (SAU 29213; ATB FOS) was <0.125 µg/mL. For the same compound, the “MIC ATB combined with Example” value (SAU 29213; ATB MEM) was <0.031 µg/mL, the “MIC ATB combined with Example” value (SAU 29213; ATB PIP) was <0.031 µg/mL and the “MIC ATB combined with Example compound” value (SAU 29213; MIC of CIP) was <0.031 µg/mL. The “MIC ATB combined with Example compound” value (SAU 29213; MIC of CLI) was <0.0010 µg/mL, the “MIC ATB combined with Example compound” value (SAU 29213; MIC of CPO) was <0.031 µg/mL and the “MIC ATB combined with Example compound” value (SAU 29213; MIC of DAP) was <0.0020 µg/mL. For the same compound, the “MIC ATB combined with Example compound” value (SAU 29213; MIC of ERY) was <0.0020 µg/mL, the “MIC ATB combined with Example compound” value (SAU 29213; MIC of LZD) was <0.0078 µg/mL and the “MIC ATB combined with Example compound” value (SAU 29213; MIC of RIF) was <0.00012 µg/mL. The “MIC ATB combined with Example compound” value (SAU 29213; MIC of SYN) was <0.0020 µg/mL, the “MIC ATB combined with Example compound” value (SAU 29213; MIC of VAN) was <0.0039 µg/mL and the MIC (SAU 29213; Staphylococcus aureus, substance alone, SAU 29213 (MSSA 29213), read-out: MIC) was 4 µg/mL. The “MIC ATB combined with Example” value (PAE 105250; ATB ATM) was 8 µg/mL, the “MIC ATB combined with Example” value (PAE 105250; ATB FEP) was 4 µg/mL and the “MIC ATB combined with Example” value (PAE 105250; ATB FOS) was >128 µg/mL. For the same compound, the “MIC ATB combined with Example” value (PAE 105250; ATB MEM) was 2 µg/mL, the “MIC ATB combined with Example” value (PAE 105250; ATB PIP) was 32 µg/mL and the “MIC ATB combined with Example compound” value (PAE 105250; MIC of CIP) was 0.125 µg/mL. The “MIC ATB combined with Example compound” value (PAE 105250; MIC of CPO) was 8 µg/mL, the “MIC ATB combined with Example” value (PAE UFR90; ATB ATM) was 16 µg/mL and the “MIC ATB combined with Example” value (PAE UFR90; ATB FEP) was 4 µg/mL. For the same compound, the “MIC ATB combined with Example” value (PAE UFR90; ATB FOS) was 8 µg/mL, the “MIC ATB combined with Example” value (PAE UFR90; ATB MEM) was 2 µg/mL and the “MIC ATB combined with Example” value (PAE UFR90; ATB PIP) was >32 µg/mL. For the same compound, the “MIC ATB combined with Example compound” value (PAE UFR90; MIC of CIP) was 1 µg/mL, the “MIC ATB combined with Example compound” value (PAE UFR90; MIC of CPO) was 8 µg/mL and the “MIC ATB combined with Example” value (PAE UFR48; ATB ATM) was 8 µg/mL. For the same compound, the “MIC ATB combined with Example” value (PAE UFR48; ATB FEP) was 16 µg/mL, the “MIC ATB combined with Example” value (PAE UFR48; ATB FOS) was 32 µg/mL and the “MIC ATB combined with Example” value (PAE UFR48; ATB MEM) was 0.25 µg/mL. The “MIC ATB combined with Example” value (PAE UFR48; ATB PIP) was 16 µg/mL, the “MIC ATB combined with Example compound” value (PAE UFR48; MIC of CIP) was 4 µg/mL and the “MIC ATB combined with Example compound” value (PAE UFR48; MIC of CPO) was >32 µg/mL. For the same compound, the “MIC ATB combined with Example” value (ECL P99; ATB ATM) was <0.031 µg/mL, the “MIC ATB combined with Example” value (ECL P99; ATB FEP) was <0.031 µg/mL and the “MIC ATB combined with Example” value (ECL P99; ATB FOS) was <0.125 µg/mL. The “MIC ATB combined with Example” value (ECL P99; ATB MEM) was <0.031 µg/mL, the “MIC ATB combined with Example” value (ECL P99; ATB PIP) was <0.031 µg/mL and the MIC (ECL P99; Enterobacter cloacae, substance alone, read-out: MIC) was 4 µg/mL. The “MIC ATB combined with Example compound” value (ECL P99; MIC of CIP, compound @8 μg/ml) was <0.031 µg/mL.
